Legend:
human TLR7 = biological target: T1, human TLR7 (Homo sapiens, UniProt Q9NYK1); assay: TLR7 inhibition reporter assay (HEK-Blue cells, SEAP reporter); assay type: cell-based; settings: HEK-Blue cells overexpressing human TLR7, stimulated with gardiquimod 7.5 μM, 22 hour incubation
T1 construct: host or cells: HEK-Blue cells
T1 sequence (Q9NYK1 27-1049): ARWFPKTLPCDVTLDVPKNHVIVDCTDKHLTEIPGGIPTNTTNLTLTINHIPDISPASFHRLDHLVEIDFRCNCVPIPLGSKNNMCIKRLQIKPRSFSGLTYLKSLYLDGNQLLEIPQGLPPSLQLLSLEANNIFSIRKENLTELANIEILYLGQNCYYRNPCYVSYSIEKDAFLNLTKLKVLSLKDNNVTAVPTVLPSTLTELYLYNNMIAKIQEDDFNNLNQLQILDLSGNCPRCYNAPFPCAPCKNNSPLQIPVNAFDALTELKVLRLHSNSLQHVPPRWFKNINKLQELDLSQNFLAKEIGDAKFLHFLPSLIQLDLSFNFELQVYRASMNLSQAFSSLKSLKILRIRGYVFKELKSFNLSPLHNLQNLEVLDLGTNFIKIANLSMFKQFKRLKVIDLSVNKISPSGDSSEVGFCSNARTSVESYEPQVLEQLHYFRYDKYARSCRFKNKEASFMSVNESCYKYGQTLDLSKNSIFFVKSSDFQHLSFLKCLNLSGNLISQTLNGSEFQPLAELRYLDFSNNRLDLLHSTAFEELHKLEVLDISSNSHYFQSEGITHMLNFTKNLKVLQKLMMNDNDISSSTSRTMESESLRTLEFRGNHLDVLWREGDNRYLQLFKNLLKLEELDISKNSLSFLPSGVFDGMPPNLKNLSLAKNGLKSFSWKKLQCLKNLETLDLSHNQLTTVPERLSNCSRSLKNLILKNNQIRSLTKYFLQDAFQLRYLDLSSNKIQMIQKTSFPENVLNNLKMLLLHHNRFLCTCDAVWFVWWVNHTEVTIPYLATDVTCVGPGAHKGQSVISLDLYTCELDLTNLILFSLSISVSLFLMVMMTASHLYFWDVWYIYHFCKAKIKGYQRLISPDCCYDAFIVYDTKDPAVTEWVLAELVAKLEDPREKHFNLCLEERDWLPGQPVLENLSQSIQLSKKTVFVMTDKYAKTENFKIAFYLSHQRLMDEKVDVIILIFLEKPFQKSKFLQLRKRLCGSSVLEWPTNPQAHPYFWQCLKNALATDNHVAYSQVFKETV
Procedure: (§1) TLR7/8/9 Inhibition Reporter Assays
(§2) HEK-Blue™-cells (Invivogen) overexpressing human TLR7, TLR8 or TLR9 receptors were used for screening inhibitors of these receptors using an inducible SEAP (secreted embryonic alkaline phosphatase) reporter gene under the control of the IFN-β minimal promoter fused to five NF-κB and AP-1-binding sites. Briefly, cells are seeded into Greiner 384 well plates (15000 cells per well for TLR7, 20,000 for TLR8 and 25,000 for TLR9) and then treated with test compounds in DMSO to yield a final dose response concentration range of 0.05 nM-50 μM. After a 30 minute compound pre-treatment at room temperature, the cells are then stimulated with a TLR7 ligand (gardiquimod at a final concentration of 7.5 μM), TLR8 ligand (R848 at a final concentration of 15.9 μM) or TLR9 ligand (ODN2006 at a final concentration of 5 nM) to activate NF-κB and AP-1 which induce the production of SEAP. After a 22 hour incubation at 37° C., 5% CO2, SEAP levels are determined with the addition of HEK-Blue™ Detection reagent (Invivogen), a cell culture medium that allows for detection of SEAP, according to manufacturer's specifications. The percent inhibition is determined as the % reduction in the HEK-Blue signal present in wells treated with agonist plus DMSO alone compared to wells treated with a known inhibitor.

human TLR9 = biological target: T2, human TLR9 (Homo sapiens, UniProt Q9NR96); assay: TLR9 inhibition reporter assay (HEK-Blue cells, SEAP reporter); assay type: cell-based; settings: HEK-Blue cells overexpressing human TLR9, stimulated with ODN2006 5 nM, 22 hour incubation
T2 construct: host or cells: HEK-Blue cells
T2 sequence (Q9NR96 26-1032): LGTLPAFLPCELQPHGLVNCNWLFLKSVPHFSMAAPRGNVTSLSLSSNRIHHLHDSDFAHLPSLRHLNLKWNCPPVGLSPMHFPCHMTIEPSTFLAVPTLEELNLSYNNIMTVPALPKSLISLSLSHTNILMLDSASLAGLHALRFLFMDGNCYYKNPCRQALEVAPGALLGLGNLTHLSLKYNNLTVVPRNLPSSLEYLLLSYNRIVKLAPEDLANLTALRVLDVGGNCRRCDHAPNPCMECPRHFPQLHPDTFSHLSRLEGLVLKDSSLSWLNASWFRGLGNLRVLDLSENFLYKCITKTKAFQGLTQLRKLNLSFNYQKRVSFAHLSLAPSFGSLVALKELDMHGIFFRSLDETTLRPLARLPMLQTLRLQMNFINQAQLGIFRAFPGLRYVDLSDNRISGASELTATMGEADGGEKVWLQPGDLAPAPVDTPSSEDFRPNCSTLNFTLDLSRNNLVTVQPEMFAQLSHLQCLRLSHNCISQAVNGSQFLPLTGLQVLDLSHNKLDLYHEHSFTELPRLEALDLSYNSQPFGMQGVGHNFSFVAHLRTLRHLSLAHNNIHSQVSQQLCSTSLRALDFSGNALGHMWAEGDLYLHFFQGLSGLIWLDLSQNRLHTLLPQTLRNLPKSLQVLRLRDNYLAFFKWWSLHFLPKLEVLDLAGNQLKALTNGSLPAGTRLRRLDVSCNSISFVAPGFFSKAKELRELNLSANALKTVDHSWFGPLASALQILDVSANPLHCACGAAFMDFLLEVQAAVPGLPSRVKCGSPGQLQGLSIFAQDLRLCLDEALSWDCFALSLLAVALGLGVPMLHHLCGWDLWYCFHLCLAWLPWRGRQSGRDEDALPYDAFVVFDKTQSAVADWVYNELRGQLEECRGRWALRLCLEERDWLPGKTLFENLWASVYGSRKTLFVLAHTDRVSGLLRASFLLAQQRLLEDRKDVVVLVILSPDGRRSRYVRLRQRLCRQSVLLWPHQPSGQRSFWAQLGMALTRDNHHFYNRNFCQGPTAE
Procedure: as §1
as §2, with “After a 30 minute compound pre-treatment at room temperature, the cells are then stimulated with a TLR7 ligand (gardiquimod at a final concentration of 7.5 μM), TLR8 ligand (R848 at a final concentration of 15.9 μM) or TLR9 ligand (ODN2006 at a final concentration of 5 nM) to activate NF-κB and AP-1 which induce the production of SEAP.” left out

| SMILES | IC50 (human TLR7) [nM] | IC50 (human TLR9) [nM] |
| --- | --- | --- |
| Cc1nc(-c2ccc(CN3C[C@H]4CC[C@@H]3CN4CC(C)(C)CO)cc2)cc2c1cc(-c1ccc(S(C)(=O)=O)cc1)n2C [Example 45, 3-((1R,4R)-5-(4-(1,4-Dimethyl-2-(4-(methylsulfonyl)phenyl)-1H-pyrrolo[3,2-c]pyridin-6-yl)benzyl)-2,5-diazabicyclo[2.2.2]octan-2-yl)-2,2-dimethylpropan-1-ol] | 750 | 68 |
| Cc1nc(-c2ccc(CN3CCN(CCC(C)(C)O)CC3)cc2)cc2c1cc(-c1ccc(S(C)(=O)=O)cc1)n2C(F)F [Example 117, 4-[4-[[4-[1-(difluoromethyl)-4-methyl-2-(4-methylsulfonylphenyl)pyrrolo[3,2-c]pyridin-6-yl]phenyl]methyl]piperazin-1-yl]-2-methyl-butan-2-ol] | 7800 | 557 |
